Source: ChEMBL document CHEMBL5528031, “Synthesis and antitumor activity of cyclopentane-fused anthraquinone derivatives” (Eur J Med Chem, 2024)
Converted amounts (≈) assume the structure as drawn. The source made the active and inactive calls. The calls are words filed in the database; no cut-off is given here.

Tests used:
Z-138 = assay: Antiproliferative activity against human Z138 cells assessed as inhibition of cell growth incubated for 72 hrs by MTT assay; type: functional, cell-based; details: Z-138, 72 h
[1] = Antiproliferative activity against human DND41 cells assessed as inhibition of cell growth incubated for 72 hrs by MTT assay; type: functional, cell-based; details: DND41, 72 h
HCT-116 = assay: Antiproliferative activity against human HCT-116 cells assessed as inhibition of cell growth incubated for 72 hrs by MTT assay; type: functional, cell-based; details: HCT-116, 72 h
[2] = Cytotoxicity against hFB-hTERT6 cells assessed as inhibition of cell growth incubated for 72 hrs by MTT assay; type: toxicity, cell-based; details: human
CAPAN-1 = assay: Antiproliferative activity against human CAPAN-1 cells assessed as inhibition of cell growth incubated for 72 hrs by MTT assay; type: functional, cell-based; details: CAPAN-1, 72 h
HL-60 = assay: Antiproliferative activity against human HL-60 cells assessed as inhibition of cell growth incubated for 72 hrs by MTT assay; type: functional, cell-based; details: HL-60, 72 h
[3] = Antiproliferative activity against multidrug resistant human K562/4 cells expressing P-gp assessed as inhibition of cell growth incubated for 72 hrs by MTT assay; type: functional, cell-based; details: K562/4, 72 h
LN-229 = assay: Antiproliferative activity against human LN-229 cells assessed as inhibition of cell growth incubated for 72 hrs by MTT assay; type: functional, cell-based; details: LN-229, 72 h
K562 = assay: Antiproliferative activity against human K562 cells assessed as inhibition of cell growth incubated for 72 hrs by MTT assay; type: functional, cell-based; details: K562, 72 h
NCI-H1975 = assay: Antiproliferative activity against human NCI-H1975 cells assessed as inhibition of cell growth incubated for 72 hrs by MTT assay; type: functional, cell-based; details: NCI-H1975, 72 h
[4] = Octanol/water partition coefficient, logP of compound at pH 7.4 by HPLC analysis; type: physicochemical
[5] = Drug uptake in human HCT-116 cells assessed as increase in intracellular accumulation at 2 uM measured after 24 hrs by Hoechst 33342 staining based fluorescence confocal microscopic analysis; type: ADME, cell-based; details: hct-116, 24 h
Calf thymus DNA [6] = assay: Binding affinity to calf thymus DNA assessed as dissociation constant at 10 uM by fluorescence spectroscopy analysis; type: nucleic-acid assay, Bos taurus
Calf thymus DNA [7] = assay: Binding affinity to calf thymus DNA assessed as binding constant at 10 uM by fluorescence spectroscopy analysis; type: nucleic-acid assay; details: Bos taurus
[8] = Drug uptake in human HCT-116 cells assessed as increase in intracellular accumulation at 2 uM measured after 24 hrs by flow cytometry analysis; type: ADME, cell-based; details: hct-116, 24 h
DNA = assay: Binding affinity to pBR322 plasmid DNA (unknown origin) assessed as DNA intercalation by measuring reduction in electrophoretic shift at 5 to 20 uM incubated for 30 mins by EtBr staining based agarose gel electrophoresis; type: nucleic-acid assay; details: dose 5-20 µM
[9] = Drug uptake in hFB-hTERT6 cells; type: ADME, cell-based; details: human
[10] = Solubility of compound in deionized water at pH 6; type: physicochemical

| SMILES | IC50 (HCT-116) [nM] | IC50 (HL-60) [nM] | IC50 (K562) [nM] | IC50 (NCI-H1975) [nM] | Drug uptake [5] | Kb (Calf thymus DNA [7]) | Drug uptake [8] | Activity (DNA) | Drug uptake [9] | solubility [10] [mg/mL] | IC50 (Z-138) [nM] | IC50 [1] [nM] | IC50 at 72 h [2] [nM] | IC50 (CAPAN-1) [nM] | IC50 [3] [nM] | IC50 (LN-229) [nM] | logD [4] | Kd (Calf thymus DNA [6]) [nM] |
| --- | --- | --- | --- | --- | --- | --- | --- | --- | --- | --- | --- | --- | --- | --- | --- | --- | --- | --- |
| CC(=O)[C@]1(O)Cc2c(O)c3c(c(O)c2[C@@H](O[C@H]2C[C@H](N)[C@H](O)[C@H](C)O2)C1)C(=O)c1c(O)cccc1C3=O [CARUBICIN] | – | – | – | – | – | – | – | – | – | – | – | – | – | – | – | – | 0.95 | – |
| O=C1c2ccccc2C(=O)c2c(O)c3c(c(O)c21)CC(C(=O)NC1CCNCC1)C3 | 1000 | 1500 | 1600 | 1800 | – | – | – | – | – | – | 3100 | 2000 | 4500 | 1700 | 4500 | 1400 | – | – |
| NCCCNC(=O)C1Cc2c(O)c3c(c(O)c2C1)C(=O)c1ccccc1C3=O | 2100 | 45000 | 3700 | 3300 | – | – | – | – | – | – | > 50000 | 43000 | 6500 | 3600 | 7800 | 3900 | – | – |
| O=C1c2ccccc2C(=O)c2c(O)c3c(c(O)c21)CC(C(=O)NCCOCCO)C3 | > 50000 | > 50000 | > 50000 | > 50000 | Not Active | 0.011 10^6/M | Not Active | inactive | Not Active | – | > 50000 | > 50000 | > 50000 | > 50000 | > 50000 | > 50000 | – | 90000 |
| O=C1c2ccccc2C(=O)c2c(O)c3c(c(O)c21)CC(C(=O)N1CCC(N2CCCCC2)CC1)C3 | 3100 | 2400 | 2000 | 3100 | – | – | – | – | – | – | 2500 | 1700 | 4500 | 1500 | 4600 | 2800 | – | – |
| O=C1c2ccccc2C(=O)c2c(O)c3c(c(O)c21)CC(C(=O)NC1CN2CCC1CC2)C3 (stereo unspecified) | 1500 | 2100 | 1600 | 6200 | – | – | – | – | – | – | 2700 | 2200 | 2400 | 1800 | 4100 | 1900 | – | – |
| NCCN(CCN)C(=O)C1Cc2c(O)c3c(c(O)c2C1)C(=O)c1ccccc1C3=O | 1300 | 2300 | 1900 | 1800 | – | – | – | – | – | – | 2500 | 2400 | 2300 | 1600 | 18000 | 1600 | – | – |
| NCCNC(=O)C1Cc2c(O)c3c(c(O)c2C1)C(=O)c1ccccc1C3=O | 1400 | 3700 | 2100 | 1800 | – | – | – | – | – | – | 2100 | 3100 | 4000 | 1600 | 6000 | 2600 | – | – |

Further lines, with some results ahead:

| IC50 (HCT-116) [nM] | IC50 (HL-60) [nM] | IC50 (K562) [nM] | IC50 (NCI-H1975) [nM] | Drug uptake [5] | Kb (Calf thymus DNA [7]) | Drug uptake [8] | Activity (DNA) | Drug uptake [9] | solubility [10] [mg/mL] | SMILES | IC50 (Z-138) [nM] | IC50 [1] [nM] | IC50 at 72 h [2] [nM] | IC50 (CAPAN-1) [nM] | IC50 [3] [nM] | IC50 (LN-229) [nM] | logD [4] | Kd (Calf thymus DNA [6]) [nM] |
| --- | --- | --- | --- | --- | --- | --- | --- | --- | --- | --- | --- | --- | --- | --- | --- | --- | --- | --- |
| 3200 | 1900 | 1700 | 4600 | – | – | – | – | – | – | O=C1c2ccccc2C(=O)c2c(O)c3c(c(O)c21)CC(C(=O)NC1CCCNC1)C3 (stereo unspecified) | 2200 | 1500 | 4200 | 1000 | 3200 | 3500 | – | – |
| 2100 | 2700 | 2000 | 6500 | – | – | – | – | – | – | N[C@H]1CC[C@H](NC(=O)C2Cc3c(O)c4c(c(O)c3C2)C(=O)c2ccccc2C4=O)CC1 | 2600 | 2500 | 4500 | 1900 | 8800 | 4500 | – | – |
| 1600 | 2300 | 2100 | 10100 | – | – | – | – | – | – | O=C1c2ccccc2C(=O)c2c(O)c3c(c(O)c21)CC(C(=O)N[C@@H]1CCNC1)C3 | 2300 | 2200 | 4200 | 1600 | 9200 | 5800 | – | – |
| 3200 | 1900 | 1700 | 4600 | – | – | – | – | – | – | NC1CCCN(C(=O)C2Cc3c(O)c4c(c(O)c3C2)C(=O)c2ccccc2C4=O)C1 (stereo unspecified) | 2200 | 1500 | 4000 | 1000 | 1200 | 3500 | – | – |
| 24300 | > 50000 | > 50000 | 18100 | – | – | – | – | – | ~1.7 (≈ 4.18 mM) | CN1CCN(C(=O)C2Cc3c(O)c4c(c(O)c3C2)C(=O)c2ccccc2C4=O)CC1 | 36200 | 10100 | > 50000 | 35200 | > 50000 | 35000 | – | – |
| 1100 | 2000 | 2000 | 1200 | – | – | – | – | – | – | N[C@@H]1CCN(C(=O)C2Cc3c(O)c4c(c(O)c3C2)C(=O)c2ccccc2C4=O)C1 | 2500 | 2300 | 4700 | 1100 | 2100 | 2000 | – | – |
| 2000 | 2800 | 2800 | 3800 | – | 0.31 10^6/M | – | – | – | – | N[C@@H]1CN(C(=O)C2Cc3c(O)c4c(c(O)c3C2)C(=O)c2ccccc2C4=O)C[C@H]1N | 2600 | 2300 | 23000 | 1700 | 35000 | 3900 | – | 3200 |
| 1300 | 1200 | 1300 | 8800 | – | – | – | – | – | 46 (≈ 117 mM) | O=C1c2ccccc2C(=O)c2c(O)c3c(c(O)c21)CC(C(=O)N1CCNCC1)C3 | 2100 | 1700 | 4000 | 1400 | 2200 | 5000 | – | – |
| 1500 | 2300 | 2400 | 2300 | – | – | – | – | – | – | O=C1c2ccccc2C(=O)c2c(O)c3c(c(O)c21)CC(C(=O)N[C@H]1CCNC1)C3 | 1800 | 1900 | 4200 | 1500 | 4800 | 5100 | – | – |
| 1400 | 2700 | 2700 | 2700 | – | – | – | – | – | – | O=C1c2ccccc2C(=O)c2c(O)c3c(c(O)c21)CC(C(=O)NC1CNC1)C3 | 2800 | 3100 | 4300 | 1500 | 33000 | 2900 | – | – |
